Among the data in PMC3254807 (2011) are IC50 values, retold here.

For the assay, the target named is Na+/K+ ATPase. Briefly: colorimetric ATPase assay. Format: biochemical, Sus scrofa.

Molecule `C[C@@H]1O[C@@H](O[C@H]2CC[C@@]3(C)[C@H](CC[C@@H]4[C@@H]3CC[C@]3(C)[C@@H](C5=CC(=O)OC5)CC[C@]43O)C2)[C@H](O)[C@H](O)[C@H]1O` [D6-MA] came in with a 50% inhibitory concentration (IC50) of 1100 nM.
As to `C[C@H]1O[C@@H](O[C@H]2[C@@H](O)C[C@H](O[C@H]3[C@@H](O)C[C@H](O[C@H]4CC[C@@]5(C)[C@H](CC[C@@H]6[C@@H]5CC[C@]5(C)[C@@H](C7=CC(=O)OC7)CC[C@]65O)C4)O[C@@H]3C)O[C@@H]2C)C[C@H](O)[C@@H]1O` [Digitoxin], the midpoint of inhibition, the IC50, lay at 2800 nM.
